From ChEMBL document CHEMBL3588856, “Structure-Based Development of a Protein-Protein Interaction Inhibitor Targeting Tumor Necrosis Factor Receptor-Associated Factor 6” (J Med Chem, 2015)
The source made the active and inactive calls. No cut-off for these calls is given here.

Legend:
[1] = target: T1, TNF receptor-associated factor 6 (Homo sapiens, UniProt Q9Y4K3); experiment: Inhibition of human TRAF6 interaction with biotinylated RANK peptide by NMR interaction analysis
T1 sequence (Q9Y4K3 whole entry): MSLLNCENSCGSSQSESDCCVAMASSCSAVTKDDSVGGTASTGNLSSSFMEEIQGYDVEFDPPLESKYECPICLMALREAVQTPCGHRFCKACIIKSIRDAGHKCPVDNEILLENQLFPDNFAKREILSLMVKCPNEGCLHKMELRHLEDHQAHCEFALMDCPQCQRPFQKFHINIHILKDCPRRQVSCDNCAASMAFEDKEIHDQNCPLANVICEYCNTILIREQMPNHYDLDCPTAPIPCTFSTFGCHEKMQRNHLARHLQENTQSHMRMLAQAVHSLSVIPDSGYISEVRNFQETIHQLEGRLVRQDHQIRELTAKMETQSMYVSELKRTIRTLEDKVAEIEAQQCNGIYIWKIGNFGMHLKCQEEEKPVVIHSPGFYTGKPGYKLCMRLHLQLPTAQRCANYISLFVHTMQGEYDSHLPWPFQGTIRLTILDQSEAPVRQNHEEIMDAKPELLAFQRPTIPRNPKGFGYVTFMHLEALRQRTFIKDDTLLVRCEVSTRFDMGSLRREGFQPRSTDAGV

[2] = target: T2, TNF receptor-associated factor 6 (Homo sapiens) (UniProt Q9Y4K3); experiment: Binding affinity to human TRAF6 using immobilized biotinylated RANK peptide from by SPR analysis
T2 sequence (whole entry): T1 sequence (Q9Y4K3 whole entry)

[3] = Cytotoxicity against BALB/c mouse primary bone marrow derived monocytes after 7 days by osteoclast differentiation/AlamarBlue assay; format: cell-based; conditions: monocyte, 168 h
[4] = target: T2, TNF receptor-associated factor 6 (Homo sapiens); experiment: Induction of human TRAF6 aggregation by NMR titration
Monocyte [5] = experiment: Inhibition of BALB/c mouse primary bone marrow derived monocytes differentiation after 7 days by osteoclast differentiation assay; format: functional, cell-based
Monocyte [6] = experiment: Inhibition of BALB/c mouse primary bone marrow derived monocytes differentiation after 7 days at 150 uM by osteoclast differentiation assay; format: functional; conditions: 168 h
[7] = target: T2, TNF receptor-associated factor 6 (Homo sapiens); conditions: 200 uM
Description: Competitive inhibition of human TRAF6 interaction with biotinylated RANK peptide at 200 uM by NMR interaction analysis

Row | SMILES | Kd [1] [µM] | inhibition [2] | Activity [3] | Activity [4] | inhibition (Monocyte [5]) | inhibition at 150 µM (Monocyte [6]) [%] | inhibition [7]
1 | O=C(Cn1c(=O)sc2ccccc21)Nc1ccc(C(=O)O)cc1 | 1900 | Active | Non-toxic | inactive | Active |  | 
2 | CS(=O)(=O)NC(=O)c1ccc(NC(=O)Cn2c(=O)sc3ccc(Cl)cc32)cc1 | 990 |  |  |  |  |  | 
3 | COc1ccc(S(=O)(=O)NC(=O)c2ccc(NC(=O)Cn3c(=O)sc4ccc(Cl)cc43)cc2)cc1Cl | 35 |  |  | inactive |  | 40 | Active
4 | O=C(Cn1c(=O)sc2ccc(Cl)cc21)Nc1ccc(C(=O)O)cc1 | 1700 |  |  |  |  |  | 
